In ChEMBL document CHEMBL1201862, “PubChem BioAssay data set” (2004):
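Tested at 5 concentrations; 48 h exposure; 96-well plates; endpoints linearly interpolated, else capped at highest concentration. GI50 is the concentration that inhibits growth by half.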 Activity calls are given as the source filed them. Cut-off read from the data, not from the text of the source: active = GI50 up to about 1.1 µM and inactive = higher.

Assays:
Assay in all cases: DTP human tumour cell line panel, 48 h
SN12C = test system: SN12C
NCI-H460 = test system: NCI-H460
K562 = test system: K562
UACC-257 = test system: UACC-257
HOP-92 = test system: HOP-92
KM12 = test system: KM12
Malme-3M = test system: Malme-3M
M14 = test system: M14
OVCAR-4 = test system: OVCAR-4
SK-MEL-5 = test system: SK-MEL-5
ACHN = test system: ACHN
HOP-62 = test system: HOP-62
HCT-116 = test system: HCT-116
A549 = test system: A549
LOX IMVI = test system: LOX IMVI
SW-620 = test system: SW-620
UACC-62 = test system: UACC-62
RXF 393 = test system: RXF 393
TK-10 = test system: TK-10
OVCAR-5 = test system: OVCAR-5

Row | SMILES | GI50 (SN12C) | GI50 (NCI-H460) | GI50 (K562) | GI50 (UACC-257) | GI50 (HOP-92) | GI50 (KM12) | GI50 (Malme-3M) | GI50 (M14) | GI50 (OVCAR-4) | GI50 (SK-MEL-5) | GI50 (ACHN) | GI50 (HOP-62) | GI50 (HCT-116) | GI50 (A549) | GI50 (LOX IMVI) | GI50 (SW-620) | GI50 (UACC-62) | GI50 (RXF 393) | GI50 (TK-10) | GI50 (OVCAR-5)
1 | Cc1c(OC(C)C(=O)O)ccc2c(-c3ccccc3)cc(=O)oc12 (configuration not stated) | > 100 µM (inactive) | > 100 µM (inactive) | > 100 µM (inactive) | > 100 µM (inactive) | > 100 µM (inactive) | > 100 µM (inactive) | > 100 µM (inactive) | > 100 µM (inactive) | > 100 µM (inactive) | > 100 µM (inactive) | > 100 µM (inactive) | > 100 µM (inactive) | > 100 µM (inactive) | > 100 µM (inactive) | > 100 µM (inactive) | > 100 µM (inactive) | > 100 µM (inactive) | > 100 µM (inactive) | > 100 µM (inactive) | –
2 | CC(C)C(=O)Cc1ccc2ccccc2n1 | > 100 µM (inactive) | > 100 µM (inactive) | – | > 100 µM (inactive) | > 100 µM (inactive) | > 100 µM (inactive) | > 100 µM (inactive) | > 100 µM (inactive) | > 100 µM (inactive) | > 100 µM (inactive) | > 100 µM (inactive) | > 100 µM (inactive) | 95.5 µM (inactive) | > 100 µM (inactive) | > 100 µM (inactive) | > 100 µM (inactive) | > 100 µM (inactive) | > 100 µM (inactive) | > 100 µM (inactive) | > 100 µM (inactive)
3 | NC(=O)OCC(COc1ccc(Cl)cc1)OC(=O)c1cc([N+](=O)[O-])cc([N+](=O)[O-])c1 (configuration not stated) | > 100 µM (inactive) | 40.6 µM (inactive) | 37.2 µM (inactive) | > 100 µM (inactive) | > 100 µM (inactive) | > 100 µM (inactive) | > 100 µM (inactive) | > 100 µM (inactive) | – | > 100 µM (inactive) | > 100 µM (inactive) | > 100 µM (inactive) | 35.8 µM (inactive) | > 100 µM (inactive) | 17.9 µM (inactive) | 13.2 µM (inactive) | > 100 µM (inactive) | > 100 µM (inactive) | > 100 µM (inactive) | > 100 µM (inactive)
4 | CSc1sc(C)cc1-c1nsc(=O)o1 | > 100 µM (inactive) | > 100 µM (inactive) | > 100 µM (inactive) | > 100 µM (inactive) | > 100 µM (inactive) | > 100 µM (inactive) | > 100 µM (inactive) | > 100 µM (inactive) | > 100 µM (inactive) | > 100 µM (inactive) | > 100 µM (inactive) | – | > 100 µM (inactive) | > 100 µM (inactive) | > 100 µM (inactive) | > 100 µM (inactive) | > 100 µM (inactive) | > 100 µM (inactive) | – | > 100 µM (inactive)
5 | N=c1n(C(=O)N2CCCC2)c2cc(Cl)ccc2n1C1=NCCN1 | 70.5 µM (inactive) | > 100 µM (inactive) | 40.6 µM (inactive) | > 100 µM (inactive) | 15.2 µM (inactive) | > 100 µM (inactive) | 99.8 µM (inactive) | 59.6 µM (inactive) | > 100 µM (inactive) | 83 µM (inactive) | 43.7 µM (inactive) | > 100 µM (inactive) | 55.5 µM (inactive) | > 100 µM (inactive) | 28.3 µM (inactive) | 52.6 µM (inactive) | > 100 µM (inactive) | 82.4 µM (inactive) | 86.5 µM (inactive) | > 100 µM (inactive)
6 | O=C1C(Cl)C2(CC(/C=C/c3cccs3)=NN2c2cccc(S(=O)(=O)O)c2)N1c1nc2ccccc2s1 (configuration not stated) | > 100 µM (inactive) | 31.1 µM (inactive) | 35.6 µM (inactive) | 76.9 µM (inactive) | 1.79 µM (inactive) | > 100 µM (inactive) | > 100 µM (inactive) | 99.3 µM (inactive) | 71.3 µM (inactive) | 16.9 µM (inactive) | 58.3 µM (inactive) | – | > 100 µM (inactive) | 42 µM (inactive) | 15.1 µM (inactive) | > 100 µM (inactive) | 59.6 µM (inactive) | > 100 µM (inactive) | 19.3 µM (inactive) | > 100 µM (inactive)
7 | O=C(NC(Cc1ccc(Cl)cc1)C(=O)O)c1ccc(I)cc1 (configuration not stated) | > 100 µM (inactive) | > 100 µM (inactive) | > 100 µM (inactive) | > 100 µM (inactive) | > 83.4 µM (inactive) | > 100 µM (inactive) | > 100 µM (inactive) | – | > 100 µM (inactive) | > 100 µM (inactive) | – | > 100 µM (inactive) | > 100 µM (inactive) | > 100 µM (inactive) | > 100 µM (inactive) | > 100 µM (inactive) | 64.9 µM (inactive) | > 100 µM (inactive) | – | > 100 µM (inactive)
8 | Cn1c(=O)c(Cl)c(N=[N+]=[N-])c2ccccc21 | 56.5 µM (inactive) | > 100 µM (inactive) | 47.1 µM (inactive) | > 100 µM (inactive) | 84.1 µM (inactive) | 0.0324 µM (active) | 68.9 µM (inactive) | – | 55.7 µM (inactive) | 65.5 µM (inactive) | 85.7 µM (inactive) | > 100 µM (inactive) | 93.8 µM (inactive) | 94.4 µM (inactive) | 55.7 µM (inactive) | > 100 µM (inactive) | 68.1 µM (inactive) | 69.2 µM (inactive) | > 100 µM (inactive) | > 100 µM (inactive)
9 | CC1=CC(=O)CC2(C)CCC(C(C)CC(=O)CC(C)C)CC12 (configuration not stated) | 17.7 µM (inactive) | 32.4 µM (inactive) | 24.5 µM (inactive) | 23.9 µM (inactive) | 31.4 µM (inactive) | 19 µM (inactive) | 24.9 µM (inactive) | 17.2 µM (inactive) | > 100 µM (inactive) | 20.4 µM (inactive) | 17.4 µM (inactive) | – | 16.1 µM (inactive) | 17.8 µM (inactive) | 18.9 µM (inactive) | 22.7 µM (inactive) | 25.5 µM (inactive) | 23.6 µM (inactive) | > 100 µM (inactive) | > 100 µM (inactive)
10 | C=CCNC(=O)N(CCC)CCCC(NC(C)=O)C(=O)NCc1ccccc1 (configuration not stated) | > 100 µM (inactive) | > 100 µM (inactive) | > 100 µM (inactive) | > 100 µM (inactive) | > 100 µM (inactive) | > 100 µM (inactive) | > 100 µM (inactive) | > 100 µM (inactive) | > 100 µM (inactive) | > 100 µM (inactive) | > 100 µM (inactive) | > 100 µM (inactive) | – | > 100 µM (inactive) | > 100 µM (inactive) | > 100 µM (inactive) | > 100 µM (inactive) | > 100 µM (inactive) | > 100 µM (inactive) | > 100 µM (inactive)
11 | CCOC(=O)Cc1cc(OC)c(OC)cc1/C(Cl)=C(\CO)c1ccc(OC)c(OC)c1 | > 100 µM (inactive) | > 100 µM (inactive) | > 100 µM (inactive) | > 100 µM (inactive) | 25.2 µM (inactive) | – | > 100 µM (inactive) | > 100 µM (inactive) | 44.4 µM (inactive) | 30.7 µM (inactive) | 81.1 µM (inactive) | – | > 100 µM (inactive) | > 100 µM (inactive) | 87.9 µM (inactive) | > 100 µM (inactive) | > 100 µM (inactive) | 37.9 µM (inactive) | > 100 µM (inactive) | –
12 | C=C(C)C1Cc2c(cc(O)c3c(=O)c4ccccc4n(C)c23)O1 (configuration not stated) | 43.1 µM (inactive) | 43.5 µM (inactive) | – | > 100 µM (inactive) | 20.6 µM (inactive) | > 100 µM (inactive) | 64.4 µM (inactive) | 28.7 µM (inactive) | 9.93 µM (inactive) | 27.7 µM (inactive) | 40.9 µM (inactive) | 14.2 µM (inactive) | 69.8 µM (inactive) | 49.8 µM (inactive) | 10.7 µM (inactive) | 36 µM (inactive) | – | 15.6 µM (inactive) | 17.5 µM (inactive) | > 100 µM (inactive)
13 | COc1cc(C2c3cc4c(cc3[C@@H](Nc3cccc(CO)c3)C3COC(=O)[C@H]23)OCO4)cc(OC)c1O (some centres not stated) | 0.558 µM (active) | < 0.01 µM (active) | 0.178 µM (active) | 0.173 µM (active) | 0.569 µM (active) | 1.72 µM (inactive) | 1.56 µM (inactive) | – | 6.84 µM (inactive) | 0.56 µM (active) | – | 0.156 µM (active) | 0.624 µM (active) | < 0.0281 µM (active) | 0.438 µM (active) | 1.41 µM (inactive) | 0.307 µM (active) | 1.27 µM (inactive) | – | 2.04 µM (inactive)
14 | COC1=CC(=O)[C@@]2(C)C(C)[C@H](c3ccccc3)[C@H]2C1=O (some centres not stated) | – | > 100 µM (inactive) | > 100 µM (inactive) | > 100 µM (inactive) | > 100 µM (inactive) | > 100 µM (inactive) | > 100 µM (inactive) | > 100 µM (inactive) | > 100 µM (inactive) | > 100 µM (inactive) | > 100 µM (inactive) | > 100 µM (inactive) | – | > 100 µM (inactive) | > 100 µM (inactive) | > 100 µM (inactive) | > 100 µM (inactive) | > 100 µM (inactive) | > 100 µM (inactive) | > 100 µM (inactive)
15 | OC1(c2ccc(Cl)cc2)c2ccc3ccccc3c2C2=N[C@H]3CCCC[C@@H]3N21 (some centres not stated) | 38.5 µM (inactive) | 13.3 µM (inactive) | 13.2 µM (inactive) | – | 16.9 µM (inactive) | 5.16 µM (inactive) | 0.284 µM (active) | 2.52 µM (inactive) | > 100 µM (inactive) | 37 µM (inactive) | 18.3 µM (inactive) | 2.54 µM (inactive) | 3.27 µM (inactive) | 10 µM (inactive) | 3.24 µM (inactive) | 16.8 µM (inactive) | 7.93 µM (inactive) | 3.5 µM (inactive) | 1.52 µM (inactive) | 3.76 µM (inactive)
